Measurements: ChEMBL document CHEMBL4649992, “Discovery of I-BRD9, a Selective Cell Active Chemical Probe for Bromodomain Containing Protein 9 Inhibition” (J Med Chem, 2016)

How the values were obtained:
[1] = molecular target: Nucleosome-remodeling factor subunit BPTF (Homo sapiens) (UniProt Q12830); conditions: Compound concentration 10.0 uM, Protein concentration 2.0 uM
[2] = molecular target: Bromodomain testis-specific protein (Homo sapiens) (UniProt Q58F21); conditions: Compound concentration 10.0 uM, Protein concentration 2.0 uM
[3] = molecular target: Chromatin remodeling regulator CECR2 (Homo sapiens) (UniProt Q9BXF3); conditions: Compound concentration 10.0 uM, Protein concentration 2.0 uM
[4] = molecular target: Bromodomain-containing protein 9 (Homo sapiens) (UniProt Q9H8M2); conditions: Compound concentration 10.0 uM, Protein concentration 2.0 uM
[5] = molecular target: Transcription intermediary factor 1-alpha (Homo sapiens) (UniProt O15164); conditions: Compound concentration 10.0 uM, Protein concentration 2.0 uM
[6] = molecular target: T1, Peregrin (Homo sapiens) (UniProt P55201); conditions: Compound concentration 10.0 uM, Protein concentration 2.0 uM
T1 sequence (whole entry): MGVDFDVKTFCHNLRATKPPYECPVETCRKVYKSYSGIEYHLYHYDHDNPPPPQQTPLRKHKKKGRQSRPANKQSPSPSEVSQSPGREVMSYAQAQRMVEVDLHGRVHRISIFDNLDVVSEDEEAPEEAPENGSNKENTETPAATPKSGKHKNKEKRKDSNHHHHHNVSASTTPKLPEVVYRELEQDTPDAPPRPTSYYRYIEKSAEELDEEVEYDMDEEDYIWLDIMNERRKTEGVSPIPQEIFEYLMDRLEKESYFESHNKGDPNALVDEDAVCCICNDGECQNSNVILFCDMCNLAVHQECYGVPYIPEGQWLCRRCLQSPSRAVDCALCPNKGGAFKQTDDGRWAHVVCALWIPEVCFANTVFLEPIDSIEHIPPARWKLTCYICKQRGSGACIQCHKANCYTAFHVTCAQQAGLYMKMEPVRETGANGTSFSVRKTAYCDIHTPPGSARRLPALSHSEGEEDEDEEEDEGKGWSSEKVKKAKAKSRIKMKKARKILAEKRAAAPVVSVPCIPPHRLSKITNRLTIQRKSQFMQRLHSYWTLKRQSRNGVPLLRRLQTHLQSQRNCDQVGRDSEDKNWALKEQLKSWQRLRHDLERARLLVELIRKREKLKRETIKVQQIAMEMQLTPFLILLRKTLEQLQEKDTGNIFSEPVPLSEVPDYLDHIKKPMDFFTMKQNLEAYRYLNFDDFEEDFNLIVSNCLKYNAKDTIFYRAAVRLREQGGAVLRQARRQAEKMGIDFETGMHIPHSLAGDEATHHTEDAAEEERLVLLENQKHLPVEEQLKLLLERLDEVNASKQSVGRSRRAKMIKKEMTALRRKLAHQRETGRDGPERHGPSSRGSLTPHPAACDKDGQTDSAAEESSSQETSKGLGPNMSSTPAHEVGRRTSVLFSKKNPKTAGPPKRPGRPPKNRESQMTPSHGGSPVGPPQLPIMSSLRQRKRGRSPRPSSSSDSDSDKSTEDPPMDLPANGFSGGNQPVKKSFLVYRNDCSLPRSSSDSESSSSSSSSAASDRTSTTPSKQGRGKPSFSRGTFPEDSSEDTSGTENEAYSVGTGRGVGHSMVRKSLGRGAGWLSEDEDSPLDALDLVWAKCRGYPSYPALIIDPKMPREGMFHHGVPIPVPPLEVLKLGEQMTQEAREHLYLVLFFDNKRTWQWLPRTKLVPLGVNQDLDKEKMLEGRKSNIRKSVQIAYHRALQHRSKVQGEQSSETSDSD

[7] = molecular target: Transcription intermediary factor 1-beta (Homo sapiens) (UniProt Q13263); conditions: Compound concentration 10.0 uM, Protein concentration 2.0 uM
[8] = molecular target: Protein polybromo-1 (Homo sapiens) (UniProt Q86U86); conditions: Compound concentration 10.0 uM, Protein concentration 2.0 uM
[9] = molecular target: Protein polybromo-1 (Homo sapiens) (UniProt Q86U86); conditions: Compound concentration 10.0 uM, Protein concentration 2.0 uM; remark: listed apart in the source
[10] = molecular target: ATPase family AAA domain-containing protein 2B (Homo sapiens) (UniProt Q9ULI0); conditions: Compound concentration 10.0 uM, Protein concentration 2.0 uM
[11] = molecular target: Transcription initiation factor TFIID subunit 1 (Homo sapiens) (UniProt P21675); conditions: Compound concentration 10.0 uM, Protein concentration 2.0 uM
[12] = molecular target: Histone-lysine N-methyltransferase 2A (Homo sapiens) (UniProt Q03164); conditions: Compound concentration 10.0 uM, Protein concentration 2.0 uM
[13] = molecular target: Chromatin remodeling regulator CECR2 (Homo sapiens) (UniProt Q9BXF3); conditions: Protein concentration 19.0 uM
[14] = molecular target: Bromodomain adjacent to zinc finger domain protein 1A (Homo sapiens) (UniProt Q9NRL2); conditions: Compound concentration 10.0 uM, Protein concentration 2.0 uM
[15] = molecular target: Transcription initiation factor TFIID subunit 1-like (Homo sapiens) (UniProt Q8IZX4); conditions: Compound concentration 10.0 uM, Protein concentration 2.0 uM
[16] = molecular target: Bromodomain adjacent to zinc finger domain protein 2B (Homo sapiens) (UniProt Q9UIF8); conditions: Compound concentration 10.0 uM, Protein concentration 2.0 uM
[17] = molecular target: Bromodomain-containing protein 2 (Homo sapiens) (UniProt P25440); conditions: Compound concentration 10.0 uM, Protein concentration 2.0 uM
[18] = molecular target: SWI/SNF-related matrix-associated actin-dependent regulator of chromatin subfamily A member 4 (Homo sapiens) (UniProt P51532); conditions: Compound concentration 10.0 uM, Protein concentration 2.0 uM
[19] = molecular target: Bromodomain-containing protein 3 (Homo sapiens) (UniProt Q15059); conditions: Compound concentration 10.0 uM, Protein concentration 2.0 uM
[20] = molecular target: Transcription intermediary factor 1-alpha (Homo sapiens) (UniProt O15164); conditions: Compound concentration 10.0 uM, Protein concentration 2.0 uM; remark: listed apart in the source
[21] = molecular target: Bromodomain and PHD finger-containing protein 3 (Homo sapiens) (UniProt Q9ULD4); conditions: Compound concentration 10.0 uM, Protein concentration 2.0 uM
[22] = molecular target: Protein polybromo-1 (Homo sapiens) (UniProt Q86U86); conditions: Compound concentration 10.0 uM, Protein concentration 2.0 uM; remark: listed apart in the source
[23] = molecular target: Bromodomain-containing protein 4 (Homo sapiens) (UniProt O60885); conditions: Compound concentration 10.0 uM, Protein concentration 2.0 uM
[24] = molecular target: Bromodomain-containing protein 3 (Homo sapiens) (UniProt Q15059); conditions: Compound concentration 10.0 uM, Protein concentration 2.0 uM; remark: listed apart in the source
[25] = molecular target: Histone-lysine N-methyltransferase ASH1L (Homo sapiens) (UniProt Q9NR48); conditions: Compound concentration 10.0 uM, Protein concentration 2.0 uM
[26] = molecular target: Bromodomain adjacent to zinc finger domain protein 2A (Homo sapiens) (UniProt Q9UIF9); conditions: Compound concentration 10.0 uM, Protein concentration 2.0 uM
[27] = molecular target: Nuclear body protein SP140 (Homo sapiens) (UniProt Q13342); conditions: Compound concentration 10.0 uM, Protein concentration 2.0 uM
[28] = molecular target: SWI/SNF-related matrix-associated actin-dependent regulator of chromatin subfamily A member 2 (Homo sapiens) (UniProt P51531); conditions: Compound concentration 10.0 uM, Protein concentration 2.0 uM
[29] = molecular target: Tyrosine-protein kinase BAZ1B (Homo sapiens) (UniProt Q9UIG0); conditions: Compound concentration 10.0 uM, Protein concentration 2.0 uM
[30] = molecular target: T1, Peregrin (Homo sapiens); conditions: Compound concentration 10.0 uM, Protein concentration 2.0 uM; remark: listed apart in the source
[31] = molecular target: Histone acetyltransferase KAT2B (Homo sapiens) (UniProt Q92831); conditions: Compound concentration 10.0 uM, Protein concentration 2.0 uM
[32] = molecular target: Bromodomain and WD repeat-containing protein 3 (Homo sapiens) (UniProt Q6RI45); conditions: Compound concentration 10.0 uM, Protein concentration 2.0 uM
[33] = molecular target: Protein polybromo-1 (Homo sapiens) (UniProt Q86U86); conditions: Compound concentration 10.0 uM, Protein concentration 2.0 uM; remark: listed apart in the source
[34] = molecular target: T1, Peregrin (Homo sapiens); experiment: Alphascreen assay. Domain start/stop: M626-G740; conditions: Compound concentration 4.0 uM, Protein concentration 50.0 uM
[35] = molecular target: Protein polybromo-1 (Homo sapiens) (UniProt Q86U86); conditions: Compound concentration 10.0 uM, Protein concentration 2.0 uM; remark: listed apart in the source
[36] = molecular target: Bromodomain-containing protein 1 (Homo sapiens) (UniProt O95696); conditions: Compound concentration 10.0 uM, Protein concentration 2.0 uM
[37] = molecular target: Bromodomain-containing protein 4 (Homo sapiens) (UniProt O60885); conditions: Compound concentration 10.0 uM, Protein concentration 2.0 uM; remark: listed apart in the source
[38] = molecular target: Bromodomain testis-specific protein (Homo sapiens) (UniProt Q58F21); conditions: Compound concentration 10.0 uM, Protein concentration 2.0 uM; remark: listed apart in the source
[39] = molecular target: Histone acetyltransferase KAT2A (Homo sapiens) (UniProt Q92830); conditions: Compound concentration 10.0 uM, Protein concentration 2.0 uM
[40] = molecular target: Bromodomain-containing protein 2 (Homo sapiens) (UniProt P25440); conditions: Compound concentration 10.0 uM, Protein concentration 2.0 uM; remark: listed apart in the source
[41] = molecular target: ATPase family AAA domain-containing protein 2 (Homo sapiens) (UniProt Q6PL18); conditions: Compound concentration 10.0 uM, Protein concentration 2.0 uM
[42] = molecular target: Nuclear body protein SP140-like protein (Homo sapiens) (UniProt Q9H930); conditions: Compound concentration 10.0 uM, Protein concentration 2.0 uM
[43] = molecular target: Bromodomain and WD repeat-containing protein 1 (Homo sapiens) (UniProt Q9NSI6); conditions: Compound concentration 10.0 uM, Protein concentration 2.0 uM
[44] = molecular target: Histone acetyltransferase p300 (Homo sapiens) (UniProt Q09472); conditions: Compound concentration 10.0 uM, Protein concentration 2.0 uM
[45] = molecular target: Transcription initiation factor TFIID subunit 1-like (Homo sapiens) (UniProt Q8IZX4); conditions: Compound concentration 10.0 uM, Protein concentration 2.0 uM; remark: listed apart in the source
[46] = molecular target: CREB-binding protein (Homo sapiens) (UniProt Q92793); conditions: Compound concentration 10.0 uM, Protein concentration 2.0 uM
[47] = molecular target: Nucleosome-remodeling factor subunit BPTF (Homo sapiens) (UniProt Q12830)
Description: Alphascreen assay. Domain start/stop: S2791-H2911

[48] = molecular target: PH-interacting protein (Homo sapiens) (UniProt Q8WWQ0); conditions: Compound concentration 10.0 uM, Protein concentration 2.0 uM
[49] = molecular target: Bromodomain-containing protein 7 (Homo sapiens) (UniProt Q9NPI1); conditions: Compound concentration 10.0 uM, Protein concentration 2.0 uM
[50] = molecular target: Transcription initiation factor TFIID subunit 1 (Homo sapiens) (UniProt P21675); conditions: Compound concentration 10.0 uM, Protein concentration 2.0 uM; remark: listed apart in the source
[51] = molecular target: Protein polybromo-1 (Homo sapiens) (UniProt Q86U86); conditions: Compound concentration 10.0 uM, Protein concentration 2.0 uM; remark: listed apart in the source
[52] = molecular target: Bromodomain-containing protein 9 (Homo sapiens) (UniProt Q9H8M2); experiment: Alphascreen assay. Domain start/stop: L14-Q143; conditions: Compound concentration 0.25 uM, Protein concentration 5.0 uM

Chain of Chromatin remodeling regulator CECR2 (Homo sapiens) (Q9BXF3 whole entry, looked up, the tested form may be a part): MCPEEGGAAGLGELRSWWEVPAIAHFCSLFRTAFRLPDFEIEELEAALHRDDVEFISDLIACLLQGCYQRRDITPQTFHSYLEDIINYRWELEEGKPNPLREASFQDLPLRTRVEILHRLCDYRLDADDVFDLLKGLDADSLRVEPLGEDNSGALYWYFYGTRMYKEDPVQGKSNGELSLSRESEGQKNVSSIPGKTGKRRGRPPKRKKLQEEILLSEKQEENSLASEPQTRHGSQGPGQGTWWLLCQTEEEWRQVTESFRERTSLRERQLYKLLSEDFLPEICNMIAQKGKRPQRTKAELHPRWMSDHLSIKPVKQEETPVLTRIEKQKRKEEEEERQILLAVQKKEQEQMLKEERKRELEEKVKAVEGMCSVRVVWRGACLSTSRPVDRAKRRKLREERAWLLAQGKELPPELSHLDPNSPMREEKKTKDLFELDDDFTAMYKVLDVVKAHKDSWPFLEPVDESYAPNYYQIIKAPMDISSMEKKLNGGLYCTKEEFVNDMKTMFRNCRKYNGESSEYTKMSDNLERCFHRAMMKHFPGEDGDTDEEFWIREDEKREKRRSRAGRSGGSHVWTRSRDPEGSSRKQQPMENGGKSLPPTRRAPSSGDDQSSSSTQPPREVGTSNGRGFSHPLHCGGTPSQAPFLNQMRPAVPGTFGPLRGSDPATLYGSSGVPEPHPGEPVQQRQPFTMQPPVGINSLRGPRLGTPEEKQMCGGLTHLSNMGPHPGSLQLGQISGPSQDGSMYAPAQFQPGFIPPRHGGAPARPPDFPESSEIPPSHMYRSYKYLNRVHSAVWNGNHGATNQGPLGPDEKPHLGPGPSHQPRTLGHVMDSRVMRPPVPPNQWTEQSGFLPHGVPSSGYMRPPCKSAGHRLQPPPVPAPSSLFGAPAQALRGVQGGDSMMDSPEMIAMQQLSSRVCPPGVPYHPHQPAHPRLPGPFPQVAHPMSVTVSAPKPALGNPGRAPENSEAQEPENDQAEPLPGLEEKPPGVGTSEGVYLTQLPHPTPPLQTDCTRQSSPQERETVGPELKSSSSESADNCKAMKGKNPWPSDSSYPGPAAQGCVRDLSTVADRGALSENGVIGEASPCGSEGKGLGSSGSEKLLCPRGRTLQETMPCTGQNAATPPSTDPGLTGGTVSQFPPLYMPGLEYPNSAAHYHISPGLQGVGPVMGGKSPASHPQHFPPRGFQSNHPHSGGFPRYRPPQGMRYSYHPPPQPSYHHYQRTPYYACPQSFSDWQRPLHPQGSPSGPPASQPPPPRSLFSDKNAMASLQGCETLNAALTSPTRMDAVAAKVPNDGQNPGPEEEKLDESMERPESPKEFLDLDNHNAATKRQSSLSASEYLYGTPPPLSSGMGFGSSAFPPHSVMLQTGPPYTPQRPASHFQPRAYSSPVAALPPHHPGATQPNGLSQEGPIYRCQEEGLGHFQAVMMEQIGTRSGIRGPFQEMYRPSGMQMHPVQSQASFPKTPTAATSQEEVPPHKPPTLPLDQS
Chain of Protein polybromo-1 (Homo sapiens) (Q86U86 whole entry, the tested form may be a part): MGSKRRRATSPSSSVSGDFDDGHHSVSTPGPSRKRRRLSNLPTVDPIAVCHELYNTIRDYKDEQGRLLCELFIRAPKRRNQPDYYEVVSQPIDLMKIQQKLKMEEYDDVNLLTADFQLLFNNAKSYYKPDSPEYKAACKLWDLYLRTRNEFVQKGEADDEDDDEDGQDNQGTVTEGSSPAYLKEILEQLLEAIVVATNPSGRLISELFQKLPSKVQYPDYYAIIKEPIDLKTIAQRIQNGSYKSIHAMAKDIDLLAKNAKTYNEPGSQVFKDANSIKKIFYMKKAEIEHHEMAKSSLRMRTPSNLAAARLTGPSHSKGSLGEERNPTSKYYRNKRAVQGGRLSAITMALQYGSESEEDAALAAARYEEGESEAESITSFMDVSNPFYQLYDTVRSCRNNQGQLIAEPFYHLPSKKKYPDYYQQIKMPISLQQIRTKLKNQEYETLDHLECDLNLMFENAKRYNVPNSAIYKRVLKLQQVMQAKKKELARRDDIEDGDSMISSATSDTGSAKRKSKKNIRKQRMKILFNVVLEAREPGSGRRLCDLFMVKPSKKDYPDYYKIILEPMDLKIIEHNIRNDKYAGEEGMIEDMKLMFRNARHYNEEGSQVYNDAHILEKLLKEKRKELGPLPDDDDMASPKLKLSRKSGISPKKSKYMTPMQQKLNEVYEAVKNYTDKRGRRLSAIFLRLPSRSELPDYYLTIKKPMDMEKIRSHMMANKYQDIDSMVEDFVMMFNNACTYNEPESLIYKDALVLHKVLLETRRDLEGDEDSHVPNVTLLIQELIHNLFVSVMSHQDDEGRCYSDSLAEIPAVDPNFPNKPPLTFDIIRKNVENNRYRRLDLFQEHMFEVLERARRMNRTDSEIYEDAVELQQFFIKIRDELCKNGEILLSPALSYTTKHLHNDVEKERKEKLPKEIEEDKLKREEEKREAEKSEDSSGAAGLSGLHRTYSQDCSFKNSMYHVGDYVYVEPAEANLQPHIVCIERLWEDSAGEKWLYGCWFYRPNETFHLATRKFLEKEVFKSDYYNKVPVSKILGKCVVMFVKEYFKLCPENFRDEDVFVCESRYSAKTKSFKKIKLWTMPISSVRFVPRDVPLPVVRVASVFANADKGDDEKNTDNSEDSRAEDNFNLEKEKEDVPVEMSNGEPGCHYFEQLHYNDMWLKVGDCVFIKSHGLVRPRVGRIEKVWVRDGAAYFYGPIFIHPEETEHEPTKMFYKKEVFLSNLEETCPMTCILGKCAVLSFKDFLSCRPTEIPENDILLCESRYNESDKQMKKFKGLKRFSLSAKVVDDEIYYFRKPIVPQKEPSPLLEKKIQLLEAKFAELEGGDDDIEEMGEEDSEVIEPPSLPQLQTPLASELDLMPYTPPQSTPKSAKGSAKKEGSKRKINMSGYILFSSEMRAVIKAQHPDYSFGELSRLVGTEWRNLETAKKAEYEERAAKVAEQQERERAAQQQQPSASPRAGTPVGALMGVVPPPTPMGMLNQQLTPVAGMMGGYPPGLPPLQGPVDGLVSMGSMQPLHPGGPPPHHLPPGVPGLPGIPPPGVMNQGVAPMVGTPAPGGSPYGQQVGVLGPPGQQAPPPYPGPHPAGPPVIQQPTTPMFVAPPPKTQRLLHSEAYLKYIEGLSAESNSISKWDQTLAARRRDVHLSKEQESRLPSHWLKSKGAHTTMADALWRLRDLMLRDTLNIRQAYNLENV
Chain of Bromodomain-containing protein 2 (Homo sapiens) (P25440 whole entry, looked up, the tested form may be a part): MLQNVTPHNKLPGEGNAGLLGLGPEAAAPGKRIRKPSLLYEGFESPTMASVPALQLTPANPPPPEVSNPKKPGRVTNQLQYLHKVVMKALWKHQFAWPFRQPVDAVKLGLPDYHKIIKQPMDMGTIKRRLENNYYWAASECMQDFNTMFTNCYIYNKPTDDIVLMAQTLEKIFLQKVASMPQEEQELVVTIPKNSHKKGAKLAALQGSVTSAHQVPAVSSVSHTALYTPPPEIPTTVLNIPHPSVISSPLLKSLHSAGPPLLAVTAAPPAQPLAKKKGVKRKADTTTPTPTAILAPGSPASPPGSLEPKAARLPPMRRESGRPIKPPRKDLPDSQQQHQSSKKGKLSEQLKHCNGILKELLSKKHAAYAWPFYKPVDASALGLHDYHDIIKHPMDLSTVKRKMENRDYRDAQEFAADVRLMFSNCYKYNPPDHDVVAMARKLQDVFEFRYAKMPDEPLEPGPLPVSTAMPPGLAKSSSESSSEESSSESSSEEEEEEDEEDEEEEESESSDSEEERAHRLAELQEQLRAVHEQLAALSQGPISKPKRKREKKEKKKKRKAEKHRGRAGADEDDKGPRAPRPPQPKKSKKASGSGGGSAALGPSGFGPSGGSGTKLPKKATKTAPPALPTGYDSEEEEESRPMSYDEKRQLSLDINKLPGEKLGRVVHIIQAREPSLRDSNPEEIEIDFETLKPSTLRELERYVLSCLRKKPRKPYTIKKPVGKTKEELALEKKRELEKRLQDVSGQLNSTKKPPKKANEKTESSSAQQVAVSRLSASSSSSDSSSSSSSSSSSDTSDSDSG
Chain of Bromodomain-containing protein 3 (Homo sapiens) (Q15059 2-726 limits assumed): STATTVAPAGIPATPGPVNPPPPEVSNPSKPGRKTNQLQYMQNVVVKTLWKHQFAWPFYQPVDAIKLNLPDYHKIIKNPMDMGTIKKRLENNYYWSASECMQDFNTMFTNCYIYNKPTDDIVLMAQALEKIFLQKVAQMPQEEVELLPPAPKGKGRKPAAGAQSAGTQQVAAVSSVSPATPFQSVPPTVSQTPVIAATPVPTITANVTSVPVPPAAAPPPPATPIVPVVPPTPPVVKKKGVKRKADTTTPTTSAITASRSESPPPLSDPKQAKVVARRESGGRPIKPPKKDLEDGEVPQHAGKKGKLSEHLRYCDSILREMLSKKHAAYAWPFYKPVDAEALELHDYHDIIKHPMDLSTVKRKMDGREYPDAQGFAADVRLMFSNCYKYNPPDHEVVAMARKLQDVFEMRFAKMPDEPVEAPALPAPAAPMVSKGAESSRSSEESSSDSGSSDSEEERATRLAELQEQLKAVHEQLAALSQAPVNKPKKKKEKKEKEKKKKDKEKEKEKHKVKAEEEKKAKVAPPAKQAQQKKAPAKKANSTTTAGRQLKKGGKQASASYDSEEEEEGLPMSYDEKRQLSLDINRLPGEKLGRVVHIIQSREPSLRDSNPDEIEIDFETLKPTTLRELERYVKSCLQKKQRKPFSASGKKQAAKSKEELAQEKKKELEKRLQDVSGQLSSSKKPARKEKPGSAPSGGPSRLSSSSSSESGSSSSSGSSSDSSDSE

ΔTm [1]: 0.58 °C
ΔTm [2]: 1.74 °C
ΔTm [3]: 9.43 °C
ΔTm [4]: 14.4 °C
ΔTm [5]: 1.86 °C
ΔTm [6]: 2.66 °C
ΔTm [7]: 0.66 °C
ΔTm [8]: 0.69 °C
ΔTm [9]: 0.74 °C
ΔTm [10]: 0.97 °C
ΔTm [11]: 0.49 °C
ΔTm [12]: 0.44 °C
inhibition ([13]; Compound concentration 0.25 uM): 4.99%
inhibition ([13]; Compound concentration 4.0 uM): 99.5%
ΔTm [14]: 0.42 °C
ΔTm [15]: 0.9 °C
ΔTm [16]: 0.84 °C
ΔTm [17]: 1.39 °C
ΔTm [18]: 0.68 °C
ΔTm [19]: 1.79 °C
ΔTm [20]: 1.09 °C
ΔTm [21]: 1.17 °C
ΔTm [22]: 0.63 °C
ΔTm [23]: 3.6 °C
ΔTm [24]: 2.77 °C
ΔTm [25]: 1.17 °C
ΔTm [26]: 0.67 °C
ΔTm [27]: 1.36 °C
ΔTm [28]: 0.72 °C
ΔTm [29]: 0.68 °C
ΔTm [30]: 1.32 °C
ΔTm [31]: 0.36 °C
ΔTm [32]: 2.31 °C
ΔTm [33]: 0.36 °C
inhibition [34]: 18.8%
ΔTm [35]: 0.36 °C
ΔTm [36]: 0.98 °C
ΔTm [37]: 1.92 °C
ΔTm [38]: 1.37 °C
ΔTm [39]: 1.26 °C
ΔTm [40]: 2.54 °C
ΔTm [41]: 0.99 °C
ΔTm [42]: 3 °C
ΔTm [43]: 0.71 °C
ΔTm [44]: 6.07 °C
ΔTm [45]: 0.59 °C
ΔTm [46]: 5.94 °C
inhibition ([47]; Compound concentration 0.25 uM, Protein concentration 20.0 uM): -2.87%
inhibition ([47]; Compound concentration 4.0 uM, Protein concentration 19.0 uM): -1.93%
ΔTm [48]: 0.95 °C
ΔTm [49]: 11.1 °C
ΔTm [50]: 0.5 °C
ΔTm [51]: 0.54 °C
inhibition [52]: 94.3%
SMILES: CCn1cc(-c2cccc(C(F)(F)F)c2)c2sc(C(=N)NC3CCS(=O)(=O)CC3)cc2c1=O
